Measurements from patent US12297190B2, “Modulators of STING (stimulator of interferon genes)” (PFIZER INC., priority 2019, dated 2025).
pEC50, pKi: −log10 of the molar value. Structures can show the parent of a compound that is named as a salt.

Columns and labels:
[1] = biological target: T1, STING (Homo sapiens, UniProt Q86WV6, G230A/H232R/R293Q/R71H); test: Interferon-β induction: THP-1 Lucia ISG reporter cell line; type: cell-based; settings: THP-1 Lucia ISG cells, 24 hours incubation, luciferase reporter; read-out: THP-1 Lucia ISG Cells IFN-β EC50
T1 construct: host or cells: THP-1 and THP-1 Lucia ISG cells
Procedure: Interferon-β Induction: THP-1 ISG Reporter Cell Line
THP-1 Lucia™ ISG cells (InvivoGen) express the secreted luciferase “Lucia” reporter gene under the control of an IRF-inducible composite promotor comprised of five interferon response elements. THP-1 Lucia™ ISG cells were grown in RPMI media plus 2 mM L-glutamine, 10% fetal bovine serum, and 0.5% Pen-Strep. Hygromycin B and Zeocin were present to maintain stable transfection. 10^4 cells were seeded in 96-well plates and incubated overnight 37° C., 5% CO2. 50 μL of serial diluted compounds in media (final 0.5% DMSO) was and incubated for an additional 24 hours. After incubation, the plates were centrifuged at 2000 rpm for 10 min. 50 μl of cell culture supernatant of each well was transferred to a white, opaque 96-well plate. One pouch of QUANTI-Luc™ (InvivoGen) powder was prepared in 25 mL of endotoxin-free water and 100 μL of prepared warm QUANTI-Luc solution were added to each well containing the supernatant. The luminescence signal was measured using a Perkin-Elmer Envision microplate reader. Data were normalized to “% effect” with a positive control STING agonist that was known to maximize the luciferase signal and the negative control DMSO.

[2] = biological target: R232-STING (Homo sapiens, UniProt Q86WV6, H232R); test: biochemical
[3] = biological target: T1, STING; test: Phosphorylation of IRF3: THP-1 cell ELISA; type: cell-based; settings: THP-1 cells, 3 hours incubation, phospho-IRF3 ELISA; read-out: THP-1 CELL P-IRF3 EC50
Procedure: Phosphorylation of IRF3: THP-1 Cell ELISA
STING activation results in recruitment of TBK1 and phosphorylation of IRF3 transcription factor before induction of type I interferons. THP-1 cells (InvivoGen) were grown in RPMI media plus 2 mM L-glutamine, 10% fetal bovine serum, and 0.5% Pen-Strep. 10^4 cells were seeded in 96-well plates and incubated overnight 37° C., 5% CO2. Compounds serial diluted compounds in media (final 0.5% DMSO) were added to the cells and incubated for an additional 3 hours. After incubation, the plates were centrifuged at 2000 rpm for 5 min. The cells were then lysed in 100 μl RIPA buffer and vortexed for 30 minutes at room temperature. 25 μl of lysate was then transferred to clear polystyrene High Bind plates that had been previously coated with mouse anti-human IRF-3 capture antibody (BD Pharmigen), and allowed to incubate at 4° C. for 16 hours. The plates were then washed and incubated with rabbit anti-phospho-IRF3 detection antibody (Cell Signaling Technologies) for 1.5 hours at room temperature. Finally, an HRP-linked secondary antibody (Cell Signaling Technologies) was added for 30 min before the Glo Substrate Reagent (R&D Systems) was used generate the luminescent signal. The signal was measured using a Perkin-Elmer Envision microplate reader. Data were normalized to “% effect” with a positive control STING agonist that was known to maximize the phosphorylated IRF3 signal and the negative control was DMSO.

R232-STING, sequence (Q86WV6 155-341 H232R): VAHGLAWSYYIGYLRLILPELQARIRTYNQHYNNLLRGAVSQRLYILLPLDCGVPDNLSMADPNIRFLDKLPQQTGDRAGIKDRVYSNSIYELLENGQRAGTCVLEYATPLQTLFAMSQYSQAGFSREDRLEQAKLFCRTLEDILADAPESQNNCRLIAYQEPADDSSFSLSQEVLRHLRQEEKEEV
T1 sequence (Q86WV6 whole entry R71H/G230A/H232R/R293Q): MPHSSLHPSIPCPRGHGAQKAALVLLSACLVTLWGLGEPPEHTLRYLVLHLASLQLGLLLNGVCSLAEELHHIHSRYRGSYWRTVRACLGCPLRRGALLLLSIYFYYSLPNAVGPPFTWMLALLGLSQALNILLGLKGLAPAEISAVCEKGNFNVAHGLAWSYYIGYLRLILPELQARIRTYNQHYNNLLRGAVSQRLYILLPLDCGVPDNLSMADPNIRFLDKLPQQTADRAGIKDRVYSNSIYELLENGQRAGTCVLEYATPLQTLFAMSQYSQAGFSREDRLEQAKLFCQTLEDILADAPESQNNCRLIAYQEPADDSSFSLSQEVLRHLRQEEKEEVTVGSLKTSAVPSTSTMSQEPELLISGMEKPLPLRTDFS

Row | Structure (SMILES) | pEC50 [1] | pKi [2] | pEC50 [3]
1 | CCn1nc(C)cc1-c1nnc(-c2cc(C(N)=O)cc3c2cnn3CCN2CCC(C#N)CC2)[nH]1 [YY09, 1-[2-(4-cyanopiperidin-1-yl)ethyl]-4-[5-(1-ethyl-3-methyl-1H-pyrazol-5-yl)-4H-1,2,4-triazol-3-yl]-1H-indazole-6-carboxamide] | < 4.00 | 6.85 | < 4.00
2 | CCn1nc(C)cc1-c1n[nH]c(-c2cc(C(N)=O)cc3c2cnn3CCN2CC3CCC2CO3)n1 (stereo not drawn) [YY25, 4-[3-(1-ethyl-3-methyl-1H-pyrazol-5-yl)-1H-1,2,4-triazol-5-yl]-1-[2-(2-oxa-5-azabicyclo[2.2.2]octan-5-yl)ethyl]-1H-indazole-6-carboxamide] | < 4.48 | 6.67 | < 4.48
3 | CCn1nc(C)cc1-c1n[nH]c(-c2cc(C(N)=O)cc3c2cnn3CCN2CCS(=O)(=O)CC2)n1 [YY27, 1-[2-(1,1-dioxo-1lambda~6~-thiomorpholin-4-yl)ethyl]-4-[3-(1-ethyl-3-methyl-1H-pyrazol-5-yl)-1H-1,2,4-triazol-5-yl]-1H-indazole-6-carboxamide] | < 4.48 | 6.31 | < 4.48
4 | CCn1nc(C)c(F)c1-c1nc(-c2cc(C(N)=O)cn3c(C)ncc23)n[nH]1 [Example F01, 8-[5-(1-ethyl-4-fluoro-3-methyl-1H-pyrazol-5-yl)-1H-1,2,4-triazol-3-yl]-3-methylimidazo[1,5-a]pyridine-6-carboxamide] | 6.17 | 7.03 | 6.11
5 | CCn1nc(C)cc1-c1nc(-c2nc(C(N)=O)cc3c2cnn3C)c(CNC)s1 [Example AA01, 4-{2-(1-ethyl-3-methyl-1H-pyrazol-5-yl)-5-[(methylamino)methyl]-1,3-thiazol-4-yl}-1-methyl-1H-pyrazolo[4,3-c]pyridine-6-carboxamide] | 4.88 | 6.87 | 4.93
6 | CCn1nc(C)cc1-c1n[nH]c(-c2cc(C(N)=O)cc3c2cnn3CCCC(=O)O)n1 [YY02, 4-{6-carbamoyl-4-[3-(1-ethyl-3-methyl-1H-pyrazol-5-yl)-1H-1,2,4-triazol-5-yl]-1H-indazol-1-yl}butanoic acid] | < 4.00 | 7.07 | < 4.00
7 | CCn1nc(C)cc1-c1n[nH]c(-c2nc(C(N)=O)cc3c2cnn3C)n1 [Example K01, 4-[3-(1-ethyl-3-methyl-1H-pyrazol-5-yl)-1H-1,2,4-triazol-5-yl]-1-methyl-1H-pyrazolo[4,3-c]pyridine-6-carboxamide] | 6.74 | 7.80 | 6.77
8 | CCn1nc(C)cc1-c1nc(-c2nc(C(N)=O)cc3c2cnn3C)c(C(C)N)s1 (single isomer, unassigned) [Example W02, 4-[5-(1-aminoethyl)-2-(1-ethyl-3-methyl-1H-pyrazol-5-yl)-1,3-thiazol-4-yl]-1-methyl-1H-pyrazolo[4,3-c]pyridine-6-carboxamide] | 5.61 | 7.17 | 5.63
9 | CCn1nc(C)cc1-c1nnc(-c2cc(C(N)=O)cc3c2cnn3CCC(=O)O)[nH]1 [YY03, 3-{6-carbamoyl-4-[5-(1-ethyl-3-methyl-1H-pyrazol-5-yl)-4H-1,2,4-triazol-3-yl]-1H-indazol-1-yl}propanoic acid] | < 4.00 | 6.96 | < 4.00
10 | CCn1nc(C)c(F)c1-c1n[nH]c(-c2cc(C(N)=O)cc3c2cnn3CCCN)n1 [YY12, 1-(3-aminopropyl)-4-[3-(1-ethyl-4-fluoro-3-methyl-1H-pyrazol-5-yl)-1H-1,2,4-triazol-5-yl]-1H-indazole-6-carboxamide] | < 4.00 | 6.14 | < 4.00
11 | Cc1cc(-c2n[nH]c(-c3cc(C(N)=O)cc4c3cnn4C(F)F)n2)n(CCC(=O)O)n1 [YY20, 3-(5-{5-[6-carbamoyl-1-(difluoromethyl)-1H-indazol-4-yl]-1H-1,2,4-triazol-3-yl}-3-methyl-1H-pyrazol-1-yl)propanoic acid] | < 4.00 | 6.77 | < 4.00
12 | CCn1nc(C)cc1-c1nnc(-c2cc(C(N)=O)cc3c2cnn3CCCCC2CCNCC2)[nH]1 [YY15, 4-[5-(1-ethyl-3-methyl-1H-pyrazol-5-yl)-4H-1,2,4-triazol-3-yl]-1-[4-(piperidin-4-yl)butyl]-1H-indazole-6-carboxamide] | < 4.00 | 6.48 | < 4.00
13 | CCn1nc(C)cc1-c1n[nH]c(-c2cc(C(N)=O)cc3c2ccn3C)n1 [Example A02, 4-[3-(1-ethyl-3-methyl-1H-pyrazol-5-yl)-1H-1,2,4-triazol-5-yl]-1-methyl-1H-indole-6-carboxamide] | 5.13 | 7.53 | 5.18
14 | CCn1nc(C)cc1-c1nnc(-c2cc(C(N)=O)cc3c2cnn3CC[C@H](C)C2CCNCC2)[nH]1 (racemic) [YY18, 4-[5-(1-ethyl-3-methyl-1H-pyrazol-5-yl)-4H-1,2,4-triazol-3-yl]-1-[(3S)-3-(piperidin-4-yl)butyl]-1H-indazole-6-carboxamide] | < 4.00 | 6.36 | < 4.00
15 | Cc1nn(CCO)c(-c2nnc(-c3nc(C(N)=O)cc4c3cnn4C)[nH]2)c1O [Example V01, 4-{5-[4-hydroxy-1-(2-hydroxyethyl)-3-methyl-1H-pyrazol-5-yl]-4H-1,2,4-triazol-3-yl}-1-methyl-1H-pyrazolo[4,3-c]pyridine-6-carboxamide] | 6.23 | 8.16 | 6.05
16 | CCn1nc(C)cc1-c1n[nH]c(-c2cc(C(N)=O)cc3c2cnn3CCN2CC(F)C2)n1 [Example M01, 4-[3-(1-ethyl-3-methyl-1H-pyrazol-5-yl)-1H-1,2,4-triazol-5-yl]-1-[2-(3-fluoroazetidin-1-yl)ethyl]-1H-indazole-6-carboxamide trifluoroacetic acid salt] | 4.09 | 6.30 | 4.11
17 | Cc1nn(CCCN)c(-c2n[nH]c(-c3nc(C(N)=O)cc4c3cnn4C)n2)c1O [Example AH01, 4-{3-[1-(3-aminopropyl)-4-hydroxy-3-methyl-1H-pyrazol-5-yl]-1H-1,2,4-triazol-5-yl}-1-methyl-1H-pyrazolo[4,3-c]pyridine-6-carboxamide] | 5.20 | 6.73 | < 4.95
18 | CCn1nc(CO)cc1-c1nc(-c2nc(C(N)=O)cc3c2cnn3C)n(C)n1 [Example AB01, 4-{3-[1-ethyl-3-(hydroxymethyl)-1H-pyrazol-5-yl]-1-methyl-1H-1,2,4-triazol-5-yl}-1-methyl-1H-pyrazolo[4,3-c]pyridine-6-carboxamide] | 5.30 | 7.63 | 5.43
19 | CCn1nc(C)cc1-c1n[nH]c(-c2cc(C(N)=O)cc3c2cnn3CCN2CCC(F)(F)CC2)n1 [Example M02] | 4.65 | 6.56 | 4.78
20 | Cc1cc(-c2nc(-c3nc(C(N)=O)cc4c3cnn4C)n(C)n2)n(CCC(=O)O)n1 [Example C09, 3-{5-[5-(6-carbamoyl-1-methyl-1H-pyrazolo[4,3-c]pyridin-4-yl)-1-methyl-1H-1,2,4-triazol-3-yl]-3-methyl-1H-pyrazol-1-yl}propanoic acid] | 4.91 | 8.85 | 4.82
21 | CCn1nc(C)c(O)c1-c1n[nH]c(-c2nc(C(N)=O)cc3c2cnn3CCN2CC(F)C2)n1 [YY33, 4-[3-(1-ethyl-4-hydroxy-3-methyl-1H-pyrazol-5-yl)-1H-1,2,4-triazol-5-yl]-1-[2-(3-fluoroazetidin-1-yl)ethyl]-1H-pyrazolo[4,3-c]pyridine-6-carboxamide] | < 4.95 | 6.78 | < 5.00
22 | CCn1nc(C)cc1-c1nnc(-c2cc(C(N)=O)cc3c2cnn3C2CC3(CCNC3)C2)[nH]1 (stereo not drawn) [YY17, 1-(6-azaspiro[3.4]octan-2-yl)-4-[5-(1-ethyl-3-methyl-1H-pyrazol-5-yl)-4H-1,2,4-triazol-3-yl]-1H-indazole-6-carboxamide] | < 4.00 | 6.43 | < 4.00
23 | CCn1nc(C)c(F)c1-c1nc(-c2nc(C(N)=O)cc3c2cnn3C)n(C)n1 [Example J03] | 6.12 | 8.17 | 6.20
